Values quoted from earlier work, collected in US20240315301A1, “Composition for Improving Vision” (ALGAE HEALTH SCIENCES CO., LTD., priority 2021, published 2024).

Details: fold more than vitamin E

## CC1=C(/C=C/C(C)=C/C=C/C(C)=C/C=C/C=C(C)/C=C/C=C(C)/C=C/C2=C(C)C(=O)C(O)CC2(C)C)C(C)(C)CC(O)C1=O (stereo not drawn) [Astaxanthin, 3, 3′-dihydroxy-β, β-carotene-4, 4′-dione]
  antioxidant activity relative to vitamin E (VE): 1000 times
